Results published in ChEMBL document CHEMBL1129973, “HIV-1 integrase pharmacophore: discovery of inhibitors through three-dimensional database searching” (J Med Chem, 1997).

Legend:
[1] = target: T1, Human immunodeficiency virus type 1 integrase (Human immunodeficiency virus 1, UniProt Q7ZJM1); assay: Inhibitory concentration against HIV-1 integrase by strand transfer method
[2] = target: T1, Human immunodeficiency virus type 1 integrase; assay: Inhibitory concentration to inhibit HIV-1 integrase by 3' -processing method
[3] = target: T1, Human immunodeficiency virus type 1 integrase; assay: Inhibitory concentration required to inhibit HIV-1 integrase by strand transfer method
[4] = target: T1, Human immunodeficiency virus type 1 integrase; assay: Inhibitory concentration to inhibit HIV-1 integrase by 3' -processing

T1 sequence (Q7ZJM1 whole entry): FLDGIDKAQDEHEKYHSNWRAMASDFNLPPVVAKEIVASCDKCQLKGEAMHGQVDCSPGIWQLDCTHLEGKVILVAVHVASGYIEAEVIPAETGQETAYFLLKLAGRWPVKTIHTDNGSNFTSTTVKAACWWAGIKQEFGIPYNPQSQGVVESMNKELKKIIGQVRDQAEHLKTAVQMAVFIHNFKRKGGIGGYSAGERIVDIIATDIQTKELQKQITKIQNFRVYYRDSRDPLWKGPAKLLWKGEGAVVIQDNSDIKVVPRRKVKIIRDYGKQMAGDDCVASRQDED

SMILES | IC50 [1] [µM] | IC50 [2] [µM] | IC50 [3] [µM] | IC50 [4] [µM]
CC1C(=N)/C(=N/Nc2ccc(S(=O)(=O)Nc3nccs3)cc2)C(=O)C(C)C1=O (stereo not given) | > 200 | > 200 |  | 
NS(=O)(=O)c1ccc(NN=C2C(=O)N(c3ccccc3)N(c3ccccc3)C2=O)cc1 | > 200 | > 200 |  | 
CCOC(=O)C(CCCCn1cnc2ncnc(Cl)c21)(NC(C)=O)C(=O)OCC | > 200 | > 200 |  | 
CCC(=O)C(C)C(=O)C(=O)NCCNC(=O)C(=O)C(C)C(=O)CC (stereo not given) | > 200 | > 200 |  | 
Nc1nc(N)c(/N=N/c2ccc(S(=O)(=O)NC(=O)c3ccccc3)cc2)c(O)n1 | 96 | 120 |  | 
CC1=NN(c2ccccc2)C(=O)C1/N=N/c1ccc(S(=O)(=O)Nc2ncccn2)cc1 (stereo not given) | > 200 | > 200 |  | 
Cc1cc(NS(=O)(=O)c2ccc(N/N=C3/C(=N)C(C)C(=O)C(C)C3=O)cc2)nc(C)n1 (stereo not given) | > 200 | > 200 |  | 
NNS(=O)(=O)c1ccc(OCC(=O)O)cc1 | 8.8 | 8.2 |  | 
CC1C(=N)/C(=N/Nc2ccc(S(=O)(=O)Nc3ccccn3)cc2)C(=O)C(C)C1=O (stereo not given) | > 200 | > 200 |  | 
NS(=O)(=O)c1ccc(/N=N/C2Sc3nc4ccccc4n3C2=O)cc1 (stereo not given) | 126 | 209 |  | 
CC(=O)C1(/N=N/c2ccc(S(=O)(=O)Nc3ccccn3)cc2)CCOC1=O (stereo not given) | > 200 | > 200 |  | 
CCOC(=O)C(Cc1cn(S(=O)(=O)c2ccccc2)c2ccccc12)(NC(C)=O)C(=O)OCC | > 200 | > 200 |  | 
NS(=O)(=O)c1ccc(NC(=O)/C=C\C(=O)O)cc1 | > 200 | > 200 |  | 
CCOC(=O)C(/C=N/c1ccc(S(N)(=O)=O)cc1)C(=O)OCC | > 200 | > 200 |  | 
C=C1CC(c2ccc(S(=O)(=O)N3CCOCC3)cc2)OC1=O (stereo not given) | > 200 | > 200 |  | 
CCOC(=O)COc1ccc(S(=O)(=O)c2ccc(OCC(=O)OCC)cc2)cc1 | > 200 | > 200 |  | 
CC1=NN(c2ccccc2)C(=O)C1/N=N/c1ccc(S(=O)(=O)Nc2nccc(C)n2)cc1 (stereo not given) | 23.6 | 49 |  | 
CC1=NN(c2ccccc2)C(=O)C1/N=N/c1ccc(S(=O)(=O)Nc2cc(C)nc(C)n2)cc1 (stereo not given) | > 200 | > 200 |  | 
CCC(=O)CCC1=Nc2nnc(CCCCc3nnc4n3C(=O)C(CCC(=O)CC)=N4)n2C1=O | > 200 | > 200 |  | 
O=C1NC(=S)SC1c1ccc(S(=O)(=O)Nc2ncccn2)cc1 (stereo not given) | 14 | 28.6 |  | 

SMILES | IC50 [1] [µM] | IC50 [2] [µM] | IC50 [3] [µM] | IC50 [4] [µM]
Cc1ccnc(NS(=O)(=O)c2ccc(NC(=O)Nc3ccc(Cl)c(C(F)(F)F)c3)cc2)n1 | 80 | 122 |  | 
Cc1nnc(NS(=O)(=O)c2ccc(N/N=C3/C(=N)C(C)C(=O)C(C)C3=O)cc2)s1 (stereo not given) | > 200 | > 200 |  | 
COc1cc(NS(=O)(=O)c2ccc(C(C)=O)cc2)nc(OC)n1 | > 200 | > 200 |  | 
CC1=NN(c2ccccc2)C(=O)C1/N=N/c1ccc(S(=O)(=O)Nc2scc(C)c2C)cc1 (stereo not given) |  |  | 97 | 124
CC1=NN(c2ccccc2)C(=O)C1/N=N/c1ccc(S(=O)(=O)Nc2nnc(C)s2)cc1 (stereo not given) | 77 | 134 |  | 
CC(=O)Nc1ccc(S(=O)(=O)/N=N/NCC(=O)O)cc1 | > 200 | > 200 |  | 
CC(=O)Nc1cc2cc(NS(=O)(=O)c3cc(C(F)(F)F)cc(C(F)(F)F)c3)ccc2oc1=O | > 200 | > 200 |  | 
Cc1ccnc(NS(=O)(=O)c2ccc(N/N=C3/C(=N)C(C)C(=O)C(C)C3=O)cc2)n1 (stereo not given) | > 200 | > 200 |  | 
CCOC(=S)SC1OC(COC(C)=O)C(OC(C)=O)C(OC(C)=O)C1OC(C)=O (stereo not given) | > 200 | > 200 |  | 
O=C(CNC(=O)c1cnc2ccccc2n1)NCCCNC(=O)CNC(=O)c1cnc2ccccc2n1 | > 200 | > 200 |  | 
CCOC(=O)N(CCCCCCNC(c1ccccc1)S(=O)(=O)O)c1ccccc1 (stereo not given) | > 200 | > 200 |  | 
CC(=O)C1(/N=N/c2ccc(S(=O)(=O)Nc3nccc(C)n3)cc2)CCOC1=O (stereo not given) | 65 | 70 |  | 
O=C(Nc1ccc(S(=O)(=O)Nc2ccc(/N=N/c3ccccc3)cc2)cc1)C(Sc1[nH]cnc2ncnc1-2)Sc1[nH]cnc2ncnc1-2 | 112 | 140 |  | 
O=C(Nc1ccc(S(=O)(=O)Nc2ccc(/N=N/c3ccc(S(=O)(=O)Nc4nccs4)cc3)cc2)cc1)C(N1CC1)(N1CC1)N1CC1 | > 200 | > 200 |  | 
Cc1cc(C)nc(NS(=O)(=O)c2ccc(NC(=O)c3cccc4c(N)c5ccccc5nc34)cc2)n1 | 13.7 | 48.3 |  | 
CC(=O)Nc1cccc2cc(S(=O)(=O)O)ccc12 | 14.3 | 27.9 |  | 
CS(=O)(=O)Nc1ccc2oc(=O)c3ccccc3c2c1 | > 200 | > 200 |  | 
CC(=O)NCCSS(=O)(=O)CCCCCS(=O)(=O)SCCNC(C)=O | > 200 | > 200 |  | 
O=C(O)c1ccccc1/C=N/NC1=CS(=O)(=O)C=C1 | > 200 | > 200 |  | 
Cc1csc(NS(=O)(=O)c2ccc(N/N=C3/C(=N)C(C)C(=O)C(C)C3=O)cc2)c1C (stereo not given) | > 200 | > 200 |  | 

SMILES | IC50 [1] [µM] | IC50 [2] [µM] | IC50 [3] [µM] | IC50 [4] [µM]
NS(=O)(=O)c1ccc(NC(=O)/C=C/C(=O)O)cc1 | > 200 | > 200 |  | 
Cc1nnc(NS(=O)(=O)c2ccc(C3SC(=S)NC3=O)cc2)s1 (stereo not given) | 19 | 24 |  | 
CC(=O)N(C(C)=O)c1nc2c(c(=O)n(C)c(=O)n2C)n1C | > 200 | > 200 |  | 
CC(=O)OCC1OC(n2ccc(-n3cncn3)nc2=O)CC1N=[N+]=[N-] (stereo not given) | > 200 | > 200 |  | 
CC(=O)Nc1ccc(N)c2cc(S(=O)(=O)O)ccc12 | 2.7 | 3.4 |  | 
CC(=O)Nc1cc(S(=O)(=O)O)cc2cc(S(=O)(=O)O)cc(O)c12 | 0.29 | 0.47 |  | 
CC(=O)C1(/N=N/c2ccc(S(=O)(=O)Nc3onc(C)c3C)cc2)CCOC1=O (stereo not given) | 143 | 193 |  | 
NS(=O)(=O)c1ccc(NC=C2C(=O)N(c3ccccc3)N(c3ccccc3)C2=O)cc1 | > 200 | > 200 |  | 
CC1=NN(c2ccccc2)C(=O)C1/N=N/c1ccc(S(N)(=O)=O)cc1 (stereo not given) | > 200 | > 200 |  | 
Cc1ccccc1CN1C2=NCCN2C(=O)C2=C1CCN(S(=O)(=O)c1ccc(Cl)c(S(N)(=O)=O)c1)C2 | > 200 | > 200 |  | 
O=C(O)[C@H]1OC(n2cc([N+](=O)[O-])c(=O)[nH]c2=O)[C@H](O)[C@@H]1O (stereo not given in full) | > 200 | > 200 |  | 
Nc1ncnc2c1ncn2[C@@H]1O[C@H](CO[C@@H]2[C@@H](O)[C@H](OS(=O)(=O)O)[C@H](O)[C@@H](O[C@H]3O[C@@H](CO)[C@@H](O)[C@H](O)[C@@H]3N)[C@]2(O)C(=O)[C@@H](N)CO)[C@@H](O)[C@H]1O | > 200 | > 200 |  | 
CC(=O)C1(/N=N/c2ccc(S(=O)(=O)Nc3nnc(C)s3)cc2)CCOC1=O (stereo not given) | 178 | 244 |  | 
NC1=NNC(=O)C1/N=N/c1ccc(S(=O)(=O)Nc2nccs2)cc1 (stereo not given) | 61 | 71 |  | 
Cc1cc(C)nc(NS(=O)(=O)c2ccc(NC(=O)c3cccn4c(=O)c5ccccc5nc34)cc2)n1 | 44.6 | 75.5 |  | 
COC(=O)c1noc2c1CSC1=C2CS(=O)(=O)c2ccccc21 | > 200 | > 200 |  | 
CS(=O)(=O)c1nc2ccc(N3C(=O)c4ccccc4C3=O)cc2s1 | > 200 | > 200 |  | 
CC1C(=N)/C(=N/Nc2ccc(S(=O)(=O)Nc3ncccn3)cc2)C(=O)C(C)C1=O (stereo not given) | > 200 | > 200 |  | 
CC1=NN(c2ccccc2)C(=O)C1/N=N/c1ccc(S(=O)(=O)Nc2ccccn2)cc1 (stereo not given) | > 200 | > 200 |  | 
Cc1cc(C)nc(NS(=O)(=O)c2ccc(CN3C(=O)c4ccccc4C3=O)cc2)n1 | > 200 | > 200 |  | 
